Reference: PMC8636635 (Communications Biology, 2021)

Tests used:
[1] = biological target: SARS-CoV-1 Protein E (Severe acute respiratory syndrome-related coronavirus, UniProt P59637); assay type: cell-based
[2] = biological target: SARS-CoV-2 Protein E (Severe acute respiratory syndrome coronavirus 2, UniProt P0DTC4); experiment: two-electrode voltage clamp, X. laevis oocytes; conditions: read-out: % block at 10 μM
[3] = biological target: T1, ORF7b (Severe acute respiratory syndrome coronavirus 2, UniProt P0DTD8)
T1 construct: gene 7b
T1 sequence (P0DTD8 whole entry): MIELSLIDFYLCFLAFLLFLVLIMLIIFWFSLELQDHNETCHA

Chain of SARS-CoV-1 Protein E (P59637 whole entry, looked up): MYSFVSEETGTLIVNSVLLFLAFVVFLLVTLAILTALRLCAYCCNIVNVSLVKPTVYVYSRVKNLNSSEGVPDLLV
Chain of SARS-CoV-2 Protein E (P0DTC4 whole entry): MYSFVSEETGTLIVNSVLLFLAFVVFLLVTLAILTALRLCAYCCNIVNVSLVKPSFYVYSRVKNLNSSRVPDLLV

Row | SMILES | % block [1] | inhibition at 10 µM [2] | % reduction in current at 10 μM [3]
1 | C1C2CC3CC1CC(C2)C3 [adamantane] | adamantane that also blocked Protein E from SARS-CoV-1, but not that of SARS-CoV-2 |  | 
2 | NC12CC3CC(CC(C3)C1)C2 [amantadine] |  | 77% | 
3 | N=C(N)NC(=O)c1nc(Cl)c(N2CCCCCC2)nc1N [hexamethylene-amiloride] | HMA and emodin blocked the Protein E ion channels from both SARS-CoV-1 and -2 | 50% | 
4 | c1ccc2c(c1)Cc1ccccc1O2 [xanthene] |  | 80% | 47%
5 | Cc1cc(O)c2c(c1)C(=O)c1cc(O)cc(O)c1C2=O [emodin] | HMA and emodin blocked the Protein E ion channels from both SARS-CoV-1 and -2 | 60% | 79%
